Columns and labels:
Assay type in all cases: biochemical
μ-opioid receptor [1] = molecular target: T1, μ-opioid receptor (Homo sapiens (Human), UniProt P35372); assay: μ-opioid receptor [35S]GTPγS functional assay, HEK-293 or CHO cells; details: for Emax: relative to DAMGO
Method in brief: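 Membranes from recombinant human μ-opioid receptor cells (HEK-293, CHO or U-2 OS) at 0.026 mg/mL with saponin, […] and 0.20 nM [35S]GTPγS in HEPES buffer pH 7.4, incubated 30 min at about 25 °C; bound radioactivity by filtration. EC50 from sigmoidal fit; Emax relative to DAMGO.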

μ-opioid receptor [2] = molecular target: T1, μ-opioid receptor; assay: μ-opioid receptor [35S]GTPγS functional assay, U-2 OS cells; details: for Emax: relative to DAMGO
Method: [^35S]GTPγS functional assays were conducted using freshly thawed μ-receptor membranes prepared in-house from a cell line expressing recombinant opioid receptor in a HEK-293, CHO or U-2 OS cell background, or purchased from a commercial source (Perkin Elmer, Shelton, Conn.; or DiscovRx, Fremont, Calif.). Assay reactions were prepared by sequentially adding the following reagents to binding buffer (100 mM NaCl, 10 mM MgCl2, 20 mM HEPES, pH 7.4) on ice (final concentrations indicated): membrane protein (0.026 mg/mL), saponin ([…]), GDP ([…]) and [^35S]GTPγS (0.20 nM; Perkin Elmer, Shelton, Conn.). The prepared membrane solution (190 μl/well) was transferred to 96-shallow well polypropylene plates containing 10 μl of 20× concentrated stock solutions of the agonist [D-Ala^2, N-methyl-Phe^4 Gly-ol^5]-enkephalin (DAMGO) prepared in dimethyl sulfoxide (DMSO). Plates were incubated for 30 min at about 25° C. with shaking. Reactions were terminated by rapid filtration onto 96-well Unifilter GF/B filter plates (Perkin Elmer, Shelton, Conn.) using a 96-well tissue harvester (Perkin Elmer, Shelton, Conn.) followed by three filtration washes with 200 μl of ice-cold wash buffer (10 mM NaH2PO4, 10 mM Na2HPO4, pH 7.4). Filter plates were subsequently dried at 50° C. for 2-3 hr. BetaScint scintillation cocktail (Perkin Elmer, Shelton, Conn.) was added (50 μl/well) and plates were counted using a Packard Top-Count for 1 min/well. Data were analyzed using the sigmoidal dose-response curve fitting functions in GraphPad PRISM v. 3.0, or an in-house function for non-linear, sigmoidal dose-response curve-fitting.
μ GTP EC50 is the concentration of a compound providing 50% of the maximal response for the compound at a μ-opioid receptor.
μ GTP Emax (%) is the maximal effect elicited by a compound relative to the effect elicited by DAMGO, a standard p agonist. Generally, the μ GTP Emax (%) value measures the efficacy of a compound to treat or prevent pain or other Conditions.
(§1) In TABLE 5, activity response of certain Compounds of the Invention to the μ- and κ-opioid receptors was determined as described above for functional assays using U-2 OS cells.

κ-opioid receptor = κ-opioid receptor (Homo sapiens (Human), UniProt P41145); assay: κ-opioid receptor [35S]GTPγS functional assay, U-2 OS cells; details: for Emax: relative to U69,593
Method: Functional [^35S]GTPγS binding assays were conducted as follows. K opioid receptor membrane solution was prepared by sequentially adding final concentrations of 0.026 μg/μl κ membrane protein (in-house), 10 μg/mL saponin, 3 μM GDP and 0.20 nM [^35S]GTPγS to binding buffer (100 mM NaCl, 10 mM MgCl2, 20 mM HEPES, pH 7.4) on ice. The prepared membrane solution (190 μl/well) was transferred to 96-shallow well polypropylene plates containing 10 μl of 20× concentrated stock solutions of agonist prepared in DMSO. Plates were incubated for 30 min at a temperature of about 25° C. with shaking. Reactions were terminated by rapid filtration onto 96-well Unifilter GF/B filter plates (Perkin Elmer, Shelton, Conn.) using a 96-well tissue harvester (Packard) and followed by three filtration washes with 200 μl ice-cold binding buffer (10 mM NaH2PO4, 10 mM Na2HPO4, pH 7.4). Filter plates were subsequently dried at 50° C. for 2-3 hours. Fifty μl/well scintillation cocktail (Perkin Elmer, Shelton, Conn.) was added and plates were counted in a Packard Top-Count for 1 min/well.
κ GTP EC50 is the concentration of a compound providing 50% of the maximal response for the compound at a κ receptor.
κ GTP Emax (%) is the maximal effect elicited by a compound relative to the effect elicited by U69,593.
as §1

[3] = HEK-293 or CHO cells, read-out: GTPγS μ EC50
[4] = HEK-293 or CHO cells, bound given in uM, read-out: GTPγS μ EC50

SMILES | EC50 (μ-opioid receptor [1]; [3]) [µM] | Emax (μ-opioid receptor [1]; HEK-293 or CHO cells) [%] | also measured
CN1CC[C@@]2(C)c3cc(O)ccc3C[C@@H]1[C@H]2NCCC1(O)CCCCC1 [Compound 12, (2R,6S,11S)-11-((2-(1-hydroxycyclohexyl)ethyl)amino)-3,6-dimethyl-1,2,3,4,5,6-hexahydro-2,6-methano-benzo[d]azocin-8-ol] | 0.223 ± 0.0298 | 47.7 ± 4.84 | EC50 (μ-opioid receptor [2]): 33.6 ± 1.43 nM; Emax (μ-opioid receptor [2]): 100 ± 1.67%; EC50 (κ-opioid receptor): 137 ± 20.1 nM; Emax (κ-opioid receptor): 54 ± 5.92%
CN1CC[C@@]2(C)c3cc(O)ccc3C[C@@H]1[C@@H]2N(C)C(=O)CC(=O)Nc1ccc(F)cc1F [Compound 26, N^1-(2,4-difluorophenyl)-N^3—((2R,6S,11R)-8-hydroxy-3,6-dimethyl-1,2,3,4,5,6-hexahydro-2,6-methanobenzo[d]azocin-11-yl)-N^3-methylmalonamide] | 0.00397 ± 0.00025 | 76.7 ± 2.73 | EC50 (μ-opioid receptor [2]): 0.33 ± 0.025 nM; Emax (μ-opioid receptor [2]): 107 ± 3.06%; EC50 (κ-opioid receptor): 54.3 ± 9.45 nM; Emax (κ-opioid receptor): 81.7 ± 10.7%
CN1CC[C@@]2(C)c3cc(O)ccc3C[C@@H]1[C@@H]2N(C)CC(=O)Nc1nc2ccc(F)cc2s1 [Compound 40, N-(6-fluorobenzo[d]thiazol-2-yl)-2-(((2R,6S,11R)-8-hydroxy-3,6-dimethyl-1,2,3,4,5,6-hexahydro-2,6-methanobenzo[d]azocin-11-yl)(methyl)amino)acetamide] | – | – | EC50 (μ-opioid receptor [2]): 539 ± 62.8 nM; Emax (μ-opioid receptor [2]): 18.7 ± 0.67%; EC50 (κ-opioid receptor): 10900 ± 1410 nM; Emax (κ-opioid receptor): 45.2 ± 4.82%
CCn1c(NC(=O)N(C)[C@H]2[C@H]3Cc4ccc(O)cc4[C@]2(C)CCN3C)nc2ccccc21 [Compound 112, 3-(1-ethyl-1H-benzo[d]imidazol-2-yl)-1-((2R,6S,11R)-8-hydroxy-3,6-dimethyl-1,2,3,4,5,6-hexahydro-2,6-methanobenzo[d]azocin-11-yl)-1-methylurea] | 0.0141 ± 0.00052 | 84.2 ± 0.94 | –
CN1CC[C@@]2(C)c3cc(C#N)ccc3C[C@@H]1[C@@H]2NCCc1ccccc1 [Compound 113, (2R,6S,11R)-3,6-dimethyl-11-(phenethylamino)-1,2,3,4,5,6-hexahydro-2,6-methanobenzo[d]azocine-8-carbonitrile] | 11.7 ± 2.81 | 10.3 ± 1.1 | –
CN1CC[C@@]2(C)c3cc(C(N)=O)ccc3C[C@@H]1[C@@H]2NCCc1ccccc1 [Compound 114, (2R,6S,11R)-3,6-dimethyl-11-(phenethylamino)-1,2,3,4,5,6-hexahydro-2,6-methanobenzo[d]azocine-8-carboxamide] | 8.62 ± 0.751 | 71 ± 2.18 | –
CN1CC[C@@]2(C)c3cc(C(N)=O)ccc3C[C@@H]1[C@H]2NCCc1ccccc1 [Compound 115, (2R,6S,11S)-3,6-dimethyl-11-(phenethylamino)-1,2,3,4,5,6-hexahydro-2,6-methanobenzo[d]azocine-8-carboxamide] | 0.525 ± 0.0263 | 83.4 ± 1.58 | –
CN1CC[C@@]2(C)c3cc(C#N)ccc3C[C@@H]1C2(O)O [Compound 116, (2R,6S)-11,11-dihydroxy-3,6-dimethyl-1,2,3,4,5,6-hexahydro-2,6-methanobenzo[d]azocine-8-carbonitrile] | – | 0 | EC50 (μ-opioid receptor [1]): > 20 µM
CN1CC[C@@]2(C)c3cc(C(=O)O)ccc3C[C@@H]1C2(O)O [Compound 117, (2R,6S)-11,11-dihydroxy-3,6-dimethyl-1,2,3,4,5,6-hexahydro-2,6-methanobenzo[d]azocine-8-carboxylic acid] | – | 0 | EC50 (μ-opioid receptor [1]; [4]): > 20 µM
CN1CC[C@@]2(C)c3cc(C(N)=O)ccc3C[C@@H]1C2(O)O [Compound 118, (2R,6S)-11,11-dihydroxy-3,6-dimethyl-1,2,3,4,5,6-hexahydro-2,6-methanobenzo[d]azocine-8-carboxamide] | – | 6.56 ± 0.6 | EC50 (μ-opioid receptor [1]): 17 ± 0.566 µM
CN1CC[C@@]2(C)c3cc(C(N)=O)ccc3C[C@@H]1[C@@H]2N(C)C(=O)Nc1ccc(C#N)cc1 [Compound 119, (2R,6S,11R)-11-(3-(4-cyanophenyl)-1-methylureido)-3,6-dimethyl-1,2,3,4,5,6-hexahydro-2,6-methanobenzo[d]azocine-8-carboxamide] | 4.95 ± 0.508 | 43.9 ± 1.88 | –
CN1CC[C@@]2(C)c3cc(C(N)=O)ccc3C[C@@H]1[C@H]2N(C)C(=O)Nc1ccc(C#N)cc1 [Compound 120, (2R,6S,11S)-11-(3-(4-cyanophenyl)-1-methylureido)-3,6-dimethyl-1,2,3,4,5,6-hexahydro-2,6-methanobenzo[d]azocine-8-carboxamide] | – | -0.33 ± 0.67 | EC50 (μ-opioid receptor [1]; [4]): > 20 µM
CN1CC[C@@]2(C)c3cc(O)ccc3C[C@@H]1[C@@H]2N(C)C(=O)Nc1nc2ccccc2o1 [Compound 121, 3-(Benzo[d]oxazol-2-yl)-1-((2R,6S,11R)-8-hydroxy-3,6-dimethyl-1,2,3,4,5,6-hexahydro-2,6-methanobenzo[d]azocin-11-yl)-1-methylurea] | 0.0824 ± 0.0104 | 60.1 ± 4.74 | –
CN1CC[C@@]2(C)c3cc(O)ccc3C[C@@H]1[C@H]2NC(=O)Nc1nc2cc(F)ccc2s1 [Compound 122, 1-(5-Fluorobenzo[d]thiazol-2-yl)-3-((2R,6S,11S)-8-hydroxy-3,6-dimethyl-1,2,3,4,5,6-hexahydro-2,6-methanobenzo[d]azocin-11-yl)urea] | 0.375 ± 0.106 | 13.6 ± 1.14 | –
CN1CC[C@@]2(C)c3cc(C(N)=O)ccc3C[C@@H]1[C@@H]2N(C)CCc1ccccc1 [Compound 123, (2R,6S,11R)-3,6-dimethyl-11-(methyl(phenethyl)amino)-1,2,3,4,5,6-hexahydro-2,6-methanobenzo[d]azocine-8-carboxamide] | 0.0233 ± 0.00447 | 97.4 ± 0.2 | –
CN1CC[C@@]2(C)c3cc(C(N)=O)ccc3C[C@@H]1[C@@H]2N(C)C(=O)Cc1ccccc1 [Compound 124, (2R,6S,11R)-3,6-dimethyl-11-(N-methyl-2-phenylacetamido)-1,2,3,4,5,6-hexahydro-2,6-methanobenzo[d]azocine-8-carboxamide] | 3.54 ± 0.48 | 81.6 ± 3.37 | –
CN1CC[C@@]2(C)c3cc(C(=O)O)ccc3C[C@@H]1[C@H]2NCCc1ccc(S(C)(=O)=O)cc1 [Compound 125, (2R,6S,11S)-3,6-dimethyl-11-((4-(methylsulfonyl)phenethyl)amino)-1,2,3,4,5,6-hexahydro-2,6-methanobenzo[d]azocine-8-carboxylic acid] | – | 0 | EC50 (μ-opioid receptor [1]; [4]): > 20 µM
CN1CC[C@@]2(C)c3cc(C(=O)O)ccc3C[C@@H]1[C@@H]2NCCc1ccc(S(C)(=O)=O)cc1 [Compound 126, (2R,6S,11R)-3,6-dimethyl-11-((4-(methylsulfonyl)phenethyl)amino)-1,2,3,4,5,6-hexahydro-2,6-methanobenzo[d]azocine-8-carboxylic acid] | – | 18.4 ± 0.3 | EC50 (μ-opioid receptor [1]; [4]): > 20 µM

From patent publication US9975854B2, “Benzomorphan analogs and use thereof” (Purdue Pharma L.P., priority 2014, dated 2018)
